16 molecules from PubChem BioAssay AID330 (DTP/NCI, 2004) can be followed below.

SMILES strings stand for the structures. “And” between values parts separate entries of the source, which are not always exact repeats. Equal values may be shown once. Toxic doses and inconclusive results are not listed.

The test system of the assay is P388 leukemia ip, CD2F1 mice, survival T/C. Nature of the assay: NCI In Vivo Anticancer Drug Screen. Data for tumor model P388 Leukemia (intraperitoneal) in CD2F1 (CDF1) mice. Conditions: endpoint: median survival time, higher = longer survival. In short, it runs like this: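 Mice carrying the transplanted tumor received test compound or vehicle. Survival was recorded in each group, and the value is the treated-group measurement divided by that of the vehicle-treated control group.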

Where [1] appears, read: dose: 25.0 mg/kg/injection, schedule: Q01DX009 (ip), vehicle: saline with Tween-80.
Where [2] appears, read: dose: 50.0 mg/kg/injection, schedule: Q01DX009 (ip), vehicle: saline with Tween-80.
Setting [3] is: dose: 50.0 mg/kg/injection, schedule: Q01DX005 (ip), vehicle: saline with Tween-80.
Where [4] appears, read: dose: 100.0 mg/kg/injection, schedule: Q04DX003 (ip), vehicle: saline.
[5] abbreviates: dose: 50.0 mg/kg/injection, schedule: Q01DX005 (ip), vehicle: Klucel (hydroxypropylcellulose) (HPC).
[6] abbreviates: dose: 100.0 mg/kg/injection, schedule: Q01DX005 (ip), vehicle: Klucel (hydroxypropylcellulose) (HPC).
[7] abbreviates: dose: 200.0 mg/kg/injection, schedule: Q01DX005 (ip), vehicle: Klucel (hydroxypropylcellulose) (HPC).

As for `O=c1cc(Cc2ccccc2)[nH]c(=S)[nH]1`, the T/C is 109 % of control (dose: 100.0 mg/kg/injection, schedule: Q04DX003 (ip), vehicle: saline with Tween-80); 104 % of control (dose: 200.0 mg/kg/injection, schedule: Q04DX003 (ip), vehicle: saline with Tween-80); 100 % of control (dose: 400.0 mg/kg/injection, schedule: Q04DX003 (ip), vehicle: saline with Tween-80).

Turning to `CC(=O)OC(C(=O)O)C(OC(C)=O)C(OC(C)=O)C(=O)O` (stereo unspecified), the T/C (dose: 50.0 mg/kg/injection, schedule: Q01DX009 (ip), vehicle: saline) was 98 % of control; the T/C (dose: 100.0 mg/kg/injection, schedule: Q01DX009 (ip), vehicle: saline) is 101 % of control; the T/C (dose: 200.0 mg/kg/injection, schedule: Q01DX009 (ip), vehicle: saline) is 95 % of control.

`COc1c2occc2cc2ccc(=O)oc12`: the T/C by setting is: (dose: 8.0 mg/kg/injection, schedule: Q01DX009 (ip), vehicle: saline with Tween-80) 89 % of control; (dose: 11.0 mg/kg/injection, schedule: Q01DX009 (ip), vehicle: saline with Tween-80) 111 % of control; (dose: 16.0 mg/kg/injection, schedule: Q01DX009 (ip), vehicle: saline with Tween-80) 87 % of control; (dose: 22.0 mg/kg/injection, schedule: Q01DX009 (ip), vehicle: saline with Tween-80) 102 % of control; under setting [1], 121 % of control; (dose: 32.0 mg/kg/injection, schedule: Q01DX009 (ip), vehicle: saline with Tween-80) 100 % of control. For the same molecule, the T/C (dose: 44.0 mg/kg/injection, schedule: Q01DX009 (ip), vehicle: saline with Tween-80) was 104 % of control; the T/C under setting [2] was 116 % of control; the T/C (dose: 64.0 mg/kg/injection, schedule: Q01DX009 (ip), vehicle: saline with Tween-80) was 88 % of control; the T/C (dose: 88.0 mg/kg/injection, schedule: Q01DX009 (ip), vehicle: saline with Tween-80) is 107 % of control; the T/C (dose: 100.0 mg/kg/injection, schedule: Q01DX009 (ip), vehicle: saline with Tween-80) is 117 % of control; the T/C (dose: 128.0 mg/kg/injection, schedule: Q01DX009 (ip), vehicle: saline with Tween-80) is 106 % of control. Moreover, the T/C (dose: 256.0 mg/kg/injection, schedule: Q01DX009 (ip), vehicle: saline with Tween-80) was 94 % of control.

As to `O=C(Nc1ccccc1)N1c2ccccc2SC1c1ccco1` (stereo unspecified), the T/C runs as follows: under setting [3], 101 % of control; (dose: 100.0 mg/kg/injection, schedule: Q01DX005 (ip), vehicle: saline with Tween-80) 100 % of control; (dose: 200.0 mg/kg/injection, schedule: Q01DX005 (ip), vehicle: saline with Tween-80) 92 % of control.

On to `O=C1NC(c2ccccc2)(c2ccccc2)C(=O)N1CCBr`, for which the T/C is 106 % of control (dose: 12.5 mg/kg/injection, schedule: Q04DX003 (ip), vehicle: saline); 96 % of control (dose: 25.0 mg/kg/injection, schedule: Q04DX003 (ip), vehicle: Klucel (hydroxypropylcellulose) (HPC)); 100 % of control (dose: 25.0 mg/kg/injection, schedule: Q04DX003 (ip), vehicle: saline); 105 % of control (dose: 50.0 mg/kg/injection, schedule: Q04DX003 (ip), vehicle: Klucel (hydroxypropylcellulose) (HPC)); 105 % of control (dose: 50.0 mg/kg/injection, schedule: Q04DX003 (ip), vehicle: saline); 100 % of control and 107 % of control (dose: 100.0 mg/kg/injection, schedule: Q04DX003 (ip), vehicle: Klucel (hydroxypropylcellulose) (HPC)). For the same molecule, the T/C was 104 % of control under setting [4]; 100 % of control and 96 % of control (dose: 200.0 mg/kg/injection, schedule: Q04DX003 (ip), vehicle: Klucel (hydroxypropylcellulose) (HPC)); 98 % of control and 99 % of control (dose: 400.0 mg/kg/injection, schedule: Q04DX003 (ip), vehicle: Klucel (hydroxypropylcellulose) (HPC)).

Consider `O=C1C(c2ccc3ccccc3n2)=C(O)c2ccccc21`, for which the T/C by setting is: (dose: 15.0 mg/kg/injection, schedule: Q01DX005 (ip), vehicle: Klucel (hydroxypropylcellulose) (HPC)) 101 % of control; (dose: 30.0 mg/kg/injection, schedule: Q01DX005 (ip), vehicle: Klucel (hydroxypropylcellulose) (HPC)) 96 % of control; (dose: 60.0 mg/kg/injection, schedule: Q01DX005 (ip), vehicle: Klucel (hydroxypropylcellulose) (HPC)) 101 % of control and 88 % of control.

Turning to `ONc1cnc2ccccc2n1`, the T/C runs as follows: under setting [5], 103 % of control; under setting [6], 100 % of control; under setting [7], 100 % of control.

Regarding `O=C(O)c1cc(Br)cc(SSc2cc(Br)cc(C(=O)O)c2O)c1O`, under setting [2], the T/C was 96 % of control.

As for `COC(=S)SSC(=S)NCC(C)NC(=S)SSC(=S)OC` (stereo unspecified), the T/C was 103 % of control under setting [5], 103 % of control under setting [6] and 105 % of control under setting [7].

Take `O=C(CBr)N1c2ccccc2S(=O)(=O)c2ccc3ccccc3c21`: the T/C by setting is: (dose: 50.0 mg/kg/injection, schedule: Q01DX009 (ip), vehicle: Klucel (hydroxypropylcellulose) (HPC)) 116 % of control and 122 % of control; (dose: 200.0 mg/kg/injection, schedule: Q01DX009 (ip), vehicle: Klucel (hydroxypropylcellulose) (HPC)) 119 % of control.

Consider `CC(=O)Oc1c(Cl)c(Cl)c(C#N)c(Cl)c1C#N`, for which the T/C under setting [1] was 100 % of control and 105 % of control; the T/C under setting [2] was 105 % of control.

With `CCOC(=O)NC(=O)NC(=O)OCC`, the T/C is 100 % of control (dose: 100.0 mg/kg/injection, schedule: Q04DX003 (ip), vehicle: saline sonified); 100 % of control (dose: 200.0 mg/kg/injection, schedule: Q04DX003 (ip), vehicle: saline sonified); 100 % of control (dose: 400.0 mg/kg/injection, schedule: Q04DX003 (ip), vehicle: saline sonified).

As for `Cc1cc(C)cc(C(=O)NC(=C(NC(=O)c2cc(C)cc(C)c2)c2ccncc2)c2ccncc2)c1` (mixture of isomers), the T/C is 96 % of control (dose: 12.5 mg/kg/injection, schedule: Q01DX005 (ip), vehicle: saline with Tween-80); 90 % of control (dose: 25.0 mg/kg/injection, schedule: Q01DX005 (ip), vehicle: saline with Tween-80); 86 % of control and 90 % of control under setting [3].

Turning to `N#Cc1cn(C2OC(CO)C(O)C2O)c2ncnc(N)c12` (stereo unspecified), the T/C (dose: 0.05 mg/kg/injection, schedule: Q01DX009 (ip), vehicle: other) was 124 % of control; the T/C (dose: 0.1 mg/kg/injection, schedule: Q01DX009 (ip), vehicle: other) is 155 % of control; the T/C (dose: 0.13 mg/kg/injection, schedule: Q04DX003 (ip), vehicle: other) was 154 % of control; the T/C (dose: 0.15 mg/kg/injection, schedule: Q04DX003 (ip), vehicle: other) is 163 % of control; the T/C (dose: 0.2 mg/kg/injection, schedule: Q01DX009 (ip), vehicle: other) was 120 % of control; the T/C (dose: 0.2 mg/kg/injection, schedule: Q04DX003 (ip), vehicle: other) was 150 % of control. For the same molecule, the T/C was 95 % of control (dose: 0.4 mg/kg/injection, schedule: Q01DX009 (ip), vehicle: other); 165 % of control (dose: 1.0 mg/kg/injection, schedule: Q04DX003 (ip), vehicle: saline with Tween-80); 150 % of control (dose: 2.0 mg/kg/injection, schedule: Q04DX003 (ip), vehicle: saline with Tween-80); 95 % of control (dose: 4.0 mg/kg/injection, schedule: Q04DX003 (ip), vehicle: saline with Tween-80); 110 % of control (dose: 29.6 micrograms/kg/injection, schedule: Q04DX003 (ip), vehicle: other); 120 % of control (dose: 44.0 micrograms/kg/injection, schedule: Q04DX003 (ip), vehicle: other). Further, the T/C (dose: 66.0 micrograms/kg/injection, schedule: Q04DX003 (ip), vehicle: other) is 153 % of control.

`Clc1nc2ccccc2nc1CI`: the T/C reads like this: (dose: 2.66 mg/kg/injection, schedule: Q01DX009 (ip), vehicle: other) 119 % of control; (dose: 4.0 mg/kg/injection, schedule: Q01DX009 (ip), vehicle: other) 119 % of control; (dose: 6.0 mg/kg/injection, schedule: Q01DX009 (ip), vehicle: other) 119 % of control; (dose: 9.0 mg/kg/injection, schedule: Q01DX009 (ip), vehicle: other) 114 % of control.

For `Cc1cncn2ncnc12`, the T/C is 100 % of control under setting [4]; 95 % of control (dose: 200.0 mg/kg/injection, schedule: Q04DX003 (ip), vehicle: saline); 95 % of control (dose: 400.0 mg/kg/injection, schedule: Q04DX003 (ip), vehicle: saline).
